Assay results published in patent publication US20060084135A1, “Compositions for manipulating the lifespan and stress response of cells and organisms” (priority 2003, published 2006).

Assays:
[1] = test system: W303AR cells (rDNA locus RDN1); test: Ribosomal DNA recombination frequency; type: cell-based, S. cerevisiae
human recombinant SIRT2 = target: T1, human recombinant SIRT2 (Homo sapiens, UniProt Q8IXJ6); test: SIRT2 deacetylation assay (Fluor de Lys-SIRT2); type: biochemical; details: increasing concentrations; 25 μM Fluor de Lys-SIRT2, 25 μM NAD+
T1 sequence (Q8IXJ6 1-389): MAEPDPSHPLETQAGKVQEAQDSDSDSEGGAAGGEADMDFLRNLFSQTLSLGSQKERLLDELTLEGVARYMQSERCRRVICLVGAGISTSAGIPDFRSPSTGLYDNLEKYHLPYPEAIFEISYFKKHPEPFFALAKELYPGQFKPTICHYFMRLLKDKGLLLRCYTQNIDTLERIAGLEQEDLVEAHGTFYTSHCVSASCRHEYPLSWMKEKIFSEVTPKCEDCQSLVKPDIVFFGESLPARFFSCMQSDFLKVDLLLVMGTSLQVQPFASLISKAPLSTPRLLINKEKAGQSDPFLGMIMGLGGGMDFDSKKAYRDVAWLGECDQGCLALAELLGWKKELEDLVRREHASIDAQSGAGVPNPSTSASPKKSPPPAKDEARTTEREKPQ
Source text: Yeast Sir2 and human SIRT1 are very homologous and differ from human SIRT2 by the addition of an N-terminal domain that is absent in SIRT2. […] Thus, based on the difference in structure of SIRT1 and SIRT2, i.e., the absence of an N-terminal domain, it is believed that the N-terminal domain of SIRT1 and Sir2 is necessary for activation by the compounds described herein. In particular, it is likely that the activator compounds described herein interact with the N-terminal portion of sirtuins. The N-terminal portion of SIRT1 that is necessary for the action of the compounds is from about amino acid 1 to about amino acid 176, and that of Sir2 is from about amino acid 1 to about amino acid 175.

S. cerevisiae = test: Yeast replicative lifespan; type: cell-based
recombinant GST-Sir2 = recombinant GST-Sir2 (Saccharomyces cerevisiae, UniProt P06700); test: Sir2 deacetylation rate assay; type: biochemical, S. cerevisiae; details: in vitro dose-response
Sequence of recombinant GST-Sir2 (P06700 whole entry): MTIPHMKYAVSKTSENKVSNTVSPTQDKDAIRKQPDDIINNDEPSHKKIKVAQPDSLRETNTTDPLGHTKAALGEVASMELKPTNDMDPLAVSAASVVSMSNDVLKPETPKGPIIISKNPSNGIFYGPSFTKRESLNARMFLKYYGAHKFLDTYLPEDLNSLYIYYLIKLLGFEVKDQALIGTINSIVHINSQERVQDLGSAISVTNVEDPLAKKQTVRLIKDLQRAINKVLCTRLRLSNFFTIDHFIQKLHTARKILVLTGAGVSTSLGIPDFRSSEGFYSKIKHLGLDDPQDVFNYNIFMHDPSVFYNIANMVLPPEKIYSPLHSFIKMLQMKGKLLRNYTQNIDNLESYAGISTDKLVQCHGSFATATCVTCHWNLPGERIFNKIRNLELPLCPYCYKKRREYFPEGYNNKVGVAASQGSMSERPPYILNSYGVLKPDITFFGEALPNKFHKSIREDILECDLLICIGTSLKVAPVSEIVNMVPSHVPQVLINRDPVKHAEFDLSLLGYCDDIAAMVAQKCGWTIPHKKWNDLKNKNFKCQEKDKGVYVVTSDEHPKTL
Method: Average lifespan was determined for wild type untreated (□), quercetin (◯) and piceatannol (●).
To investigate whether these compounds could stimulate sirtuins in vivo, we utilized S. cerevisiae, an organism in which the upstream regulators and downstream targets of Sir2 are relatively well understood.
His6-tagged recombinant SIRT1 and GST-tagged recombinant Sir2 were prepared as described by (Bitterman et al. J Biol Chem 277, 45099-107. (2002). From 0.1 to 1 μg of SIRT1 and 1.5 μg of Sir2 were used per deacetylation assay (in 50 μl total reaction). SIRT1 assays and certain of those for Sir2 employed the p53-382 acetylated substrate (‘Fluor de Lys-SIRT1′, BIOMOL) rather than FdL.
Themed compound libraries (BIOMOL) were used for primary and secondary screening. […] For water soluble compounds and negative controls, 1% v/v DMSO was added to the assay. […] HeLa cells were grown and the cellular deacetylation assays were performed and read, as above, but in full-volume 96-well microplates (Corning Costar 3595). […] Calculation of net fluorescence increases included subtraction of a blank value, which in the case of Sir2 was obtained by omitting the enzyme from the reaction and in the case of SIRT1 by adding an inhibitor (200 μM suramin or 1 mM nicotinamide) to the reaction prior to the acetylated substrate. […]

[2] = test system: lysine 382 of p53 in U2OS osteosarcoma cells; test: p53 Ac-K382 Western blot after UV radiation in U2OS cells; type: cell-based, human
recombinant human SIRT1 = target: T2, recombinant human SIRT1 (Homo sapiens, UniProt Q96EB6); test: SIRT1 fluorescent deacetylation assay (p53-382 acetylated peptide substrate); type: biochemical
T2 sequence (Q96EB6 1-747): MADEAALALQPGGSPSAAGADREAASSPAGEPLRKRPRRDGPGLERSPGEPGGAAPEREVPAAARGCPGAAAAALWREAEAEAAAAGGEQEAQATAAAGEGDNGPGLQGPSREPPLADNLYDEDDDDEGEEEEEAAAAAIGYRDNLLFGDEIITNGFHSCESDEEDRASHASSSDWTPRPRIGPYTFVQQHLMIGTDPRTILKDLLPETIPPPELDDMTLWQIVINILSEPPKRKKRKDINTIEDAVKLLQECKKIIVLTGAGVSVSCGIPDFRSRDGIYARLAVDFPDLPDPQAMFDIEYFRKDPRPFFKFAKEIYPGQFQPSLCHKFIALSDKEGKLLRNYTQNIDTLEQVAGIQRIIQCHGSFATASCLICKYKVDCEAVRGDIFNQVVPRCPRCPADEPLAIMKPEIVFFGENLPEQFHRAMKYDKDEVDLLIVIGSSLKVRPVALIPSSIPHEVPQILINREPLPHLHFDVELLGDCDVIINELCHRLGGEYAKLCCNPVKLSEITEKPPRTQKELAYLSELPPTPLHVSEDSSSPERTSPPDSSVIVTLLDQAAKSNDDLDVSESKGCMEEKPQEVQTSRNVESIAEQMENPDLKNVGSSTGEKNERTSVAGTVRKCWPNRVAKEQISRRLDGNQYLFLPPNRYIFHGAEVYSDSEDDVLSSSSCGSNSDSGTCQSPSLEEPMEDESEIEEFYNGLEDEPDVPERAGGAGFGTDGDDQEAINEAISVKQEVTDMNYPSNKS

[3] = 25 μM NAD+, 25 μM p53-382 acetylated peptide

## Oc1ccc(/C=C/c2cc(O)cc(O)c2)cc1 [Resveratrol, 3,5,4′-Trihydroxy-trans-stilbene]
[1]; sir2 strain
  rDNA recombination in a sir2 strain: does not suppress
[1]; with the Sir2 inhibitor nicotinamide
  rDNA recombination in the presence of nicotinamide: decreased
Human recombinant SIRT2
  Effect on SIRT2 activity: decrease
S. cerevisiae; pnc1 null mutant
  Extension of the lifespan of a pnc1 null mutant: nearly as well as it did wild type cells
S. cerevisiae; resveratrol 100 μM, 500 μM
  Lifespan benefit of concentrations higher than 10 μM: no added lifespan benefit
S. cerevisiae; sir2 null mutant
  Effect on the lifespan of a sir2 null mutant: no effect
Recombinant GST-Sir2
  Concentrations at which inhibition of Sir2 was seen: > 100 µM
  Optimum concentration of activator for Sir2 stimulation: 2 to 5 µM
[2]; 0.5 μM resveratrol, 4 hours pre-treatment, UV radiation
  Level of Ac-K382 of p53 compared to untreated cells: marked decrease
[2]; higher concentrations of resveratrol (>50 μM)
  Level of Ac-K382 of p53: reversed
Recombinant human SIRT1; 5 μM resveratrol in the presence of 50 μM nicotinamide
  Apparent Km for NAD+ and acetylated substrate: raised
Recombinant human SIRT1; [3]
  Concentration at which the activating effect doubled the rate: ~11 µM
  Concentration at which the activating effect was essentially saturated: ~100 µM
Recombinant human SIRT1; 100 μM resveratrol
  Effect on the two Vmax determinations: no significant effect
Recombinant human SIRT1; 100 μM resveratrol, 1 mM p53-382 acetylated peptide
  Lowering of Km for NAD+: over 5 fold
Recombinant human SIRT1; 100 μM resveratrol, 3 mM NAD+
  Decrease of acetylated peptide Km: 35 fold
Recombinant human SIRT1; 20 and 100 μM resveratrol in the presence of 50 μM nicotinamide
  Km for both NAD+ and acetylated peptide: lowers
Recombinant human SIRT1; +100 μM resveratrol, 1 mM p53-382 acetylated peptide (control 1863)
  Vmax, NAD+ varied: 1749 AFU/min.
Recombinant human SIRT1; +100 μM resveratrol, 3 mM NAD+ (control 1107)
  Vmax, p53-382 acetylated peptide varied: 926 AFU/min.
